The text below walks through data of patent US12070471B2, “Remote loading of sparingly water-soluble drugs into lipid vesicles” (CELATOR PHARMACEUTICALS, INC., priority 2014, dated 2024).

Data set [1] can be described thus: Aripiprazole loading into ammonium sulfate or sodium sulfate liposomes. The data set is classed as physicochemical. Particulars: ratio of ammonium sulfate to sodium sulfate liposomes. As for the experimental part:
Liposomes (HSPC/Chol/PEG-DSPE 3/2/0.15 mol/mol/mol) containing 250 mM ammonium sulfate or 250 mM sodium sulfate were diluted in 1 mL of 50 mM citric acid, 10% (wt/wt) sucrose, pH 4.0 to a concentration of 6 mM phospholipid. 0.3 mg of aripiprazole was added from a stock solution of 15 mg/mL in DMSO, so that the final DMSO concentration was 2% (v/v). Fine precipitates were immediately observed after the drug was added to both liposome samples. The samples were heated at 65° C. for 30 min, the cooled on ice. The samples were filtered through a 0.2 um polyethersulfone syringe filter to remove any drug precipitates, followed by purification on a Sephadex G25 column equilibrated with HBS, pH 6.5 to remove any soluble extraliposome drug. The turbid fraction was collected and analyzed for lipid and drug as described above.

Data set [2] is described as follows: Aripiprazole precipitates from various solvents, absorbance at 600 nm with liposomes. It counts as physicochemical. As to conditions: drug initially dissolved in DMSO, 1-4-methylpyrrolidone, diethylenemonoethylether or polyethyleneglycol (MW400); 7.5% solvent; 65 C 30 min. As for the experimental part: Aripiprazole was dissolved in a range of solvents indicated below at 4 mg/mL. Liposomes composed of HSPC/Chol/PEG-DSPE (3/2/0.15 mol/mol/mol) that were prepared in 250 mM ammonium sulfate were used and diluted to 6 mM in Hepes buffered sucrose 10% (wt/wt) (HBSuc pH 6.5). 0.3 mg of drug was introduced by slow addition of each solvent while vortexing. The final solvent concentration was 7.5% for all samples. As controls, the drug was added from each solvent to the same volume of HBSuc pH 6.5 without the liposomes. The samples were heated at 65° C. for 30 min then cooled on ice.

Turning to `O=C1CCc2ccc(OCCCCN3CCN(c4cccc(Cl)c4Cl)CC3)cc2N1` [aripiprazole], the “% Efficiency NH4SO4/NaSO4” value in data set [1] was 49.3. For the same compound, the “clarification of drug precipitate on incubation with liposomes (absorbance at 600 nm)” value in data set [2] is “clarified the drug precipitate”.
